From PubChem BioAssay AID256 (DTP/NCI, 2004)
Inconclusive results and toxic doses are left out. Rule for the calls: active = survival T/C of 150% or more; inactive = T/C below 125% in these data.

System: CD2F1 mice, L1210 leukemia ip, survival T/C
Experiment: NCI In Vivo Anticancer Drug Screen. Data for tumor model L1210 Leukemia (intraperitoneal) in CD2F1 (CDF1) mice
Details: endpoint: mean survival time, higher = longer survival
How it was run: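 Activity against a transplanted murine tumor was judged by comparing the compound group with a vehicle group. The outcome in the treated animals was divided by that in the controls.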

[1] = dose: 100.0 mg/kg/injection, schedule: Q01DX001 (ip), vehicle: saline
[2] = dose: 100.0 mg/kg/injection, schedule: Q01DX009 (ip), vehicle: saline with Tween-80
[3] = dose: 100.0 mg/kg/injection, schedule: Q04DX003 (ip), vehicle: saline with Tween-80
[4] = dose: 200.0 mg/kg/injection, schedule: Q01DX009 (ip), vehicle: saline with Tween-80
[5] = dose: 200.0 mg/kg/injection, schedule: Q04DX003 (ip), vehicle: saline with Tween-80
[6] = dose: 400.0 mg/kg/injection, schedule: Q01DX009 (ip), vehicle: saline with Tween-80
[7] = dose: 400.0 mg/kg/injection, schedule: Q04DX003 (ip), vehicle: saline with Tween-80
[8] = dose: 100.0 mg/kg/injection, schedule: Q01DX001 (ip), vehicle: saline with Tween-80
[9] = dose: 50.0 mg/kg/injection, schedule: Q01DX009 (ip), vehicle: saline with Tween-80

Measured: T/C

c1ccc(C(c2ccccc2)[P+](c2ccccc2)(c2ccccc2)c2ccccc2)cc1
inactive: dose: 375.0 micrograms/kg/injection, schedule: Q01DX001 (ip), vehicle: gum acacia 92 % of control | dose: 375.0 micrograms/kg/injection, schedule: Q01DX009 (ip), vehicle: gum acacia 106 % of control | dose: 375.0 micrograms/kg/injection, schedule: Q04DX003 (ip), vehicle: gum acacia 95 % of control | dose: 750.0 micrograms/kg/injection, schedule: Q01DX001 (ip), vehicle: gum acacia 103 % of control | dose: 750.0 micrograms/kg/injection, schedule: Q01DX009 (ip), vehicle: gum acacia 101 % of control | dose: 750.0 micrograms/kg/injection, schedule: Q04DX003 (ip), vehicle: gum acacia 101 % of control | dose: 1500.0 micrograms/kg/injection, schedule: Q01DX001 (ip), vehicle: gum acacia 101 % of control | dose: 1500.0 micrograms/kg/injection, schedule: Q01DX009 (ip), vehicle: gum acacia 108 % of control | dose: 1500.0 micrograms/kg/injection, schedule: Q04DX003 (ip), vehicle: gum acacia 106 % of control | dose: 3000.0 micrograms/kg/injection, schedule: Q01DX001 (ip), vehicle: gum acacia 98 % of control | dose: 3000.0 micrograms/kg/injection, schedule: Q01DX009 (ip), vehicle: gum acacia 112 % of control | dose: 3000.0 micrograms/kg/injection, schedule: Q04DX003 (ip), vehicle: gum acacia 108 % of control | dose: 6000.0 micrograms/kg/injection, schedule: Q01DX001 (ip), vehicle: gum acacia 112 % of control | dose: 6000.0 micrograms/kg/injection, schedule: Q01DX009 (ip), vehicle: gum acacia 92 % of control | dose: 6000.0 micrograms/kg/injection, schedule: Q04DX003 (ip), vehicle: gum acacia 114 % of control

O=P(OCCCCl)(OCCCCl)C(Cl)Cl
inactive: [1] 102 % of control | dose: 200.0 mg/kg/injection, schedule: Q01DX001 (ip), vehicle: saline 102 % of control | dose: 400.0 mg/kg/injection, schedule: Q01DX001 (ip), vehicle: saline 103 % of control

CCCN1CCc2cc3c(cc2C1)OCO3
inactive: [1] 100 % of control

COC(=O)C12CCc3ccoc3C1CCC1(C)C(C)=CCCC12 (stereo unspecified)
inactive: dose: 50.0 mg/kg/injection, schedule: Q04DX002 (ip), vehicle: other 115 % of control | dose: 100.0 mg/kg/injection, schedule: Q04DX002 (ip), vehicle: other 107 % of control | dose: 200.0 mg/kg/injection, schedule: Q04DX002 (ip), vehicle: other 107 % of control

O=C(Nc1cc(C(F)(F)F)ccc1Cl)c1ccccc1Cl
inactive: [2] 104 % of control | [3] 103 % of control | [4] 94 % of control | [5] 103 % of control | [6] 104 % of control | [7] 101 % of control

Cc1cc2oc(=O)c(Cl)c(NCCO)c2c(C)c1Cl
inactive: [8] 98 % of control | dose: 200.0 mg/kg/injection, schedule: Q01DX001 (ip), vehicle: saline with Tween-80 98 % of control | dose: 400.0 mg/kg/injection, schedule: Q01DX001 (ip), vehicle: saline with Tween-80 93 % of control

CC(C)(C)C(=O)CC1(O)C(=O)Nc2cccc(C(F)(F)F)c21 (stereo unspecified)
inactive: dose: 100.0 mg/kg/injection, schedule: Q04DX002 (ip), vehicle: saline with Tween-80 102 % of control | dose: 200.0 mg/kg/injection, schedule: Q04DX002 (ip), vehicle: saline with Tween-80 109 % of control | dose: 400.0 mg/kg/injection, schedule: Q04DX002 (ip), vehicle: saline with Tween-80 102 % of control

COc1ccccc1C(=O)NS(=O)(=O)c1ccc(Cl)cc1
inactive: dose: 100.0 mg/kg/injection, schedule: Q01DX009 (ip), vehicle: acetone 101 % of control | dose: 200.0 mg/kg/injection, schedule: Q01DX009 (ip), vehicle: acetone 107 % of control

O=C1c2ccccc2C(=O)c2c(O)c(Cc3ccccn3)cc(O)c21
inactive: dose: 100.0 mg/kg/injection, schedule: Q01DX009 (ip), vehicle: saline sonified 96 % of control | dose: 200.0 mg/kg/injection, schedule: Q01DX009 (ip), vehicle: saline sonified 94 % of control | dose: 400.0 mg/kg/injection, schedule: Q01DX009 (ip), vehicle: saline sonified 98 % of control

C(=Nc1ccccc1)c1ccc(-c2ccccc2)cc1
inactive: [2] 95 % of control | dose: 100.0 mg/kg/injection, schedule: Q04DX003 (ip), vehicle: saline sonified 97 % of control | [4] 98 % of control | dose: 200.0 mg/kg/injection, schedule: Q04DX003 (ip), vehicle: saline sonified 101 % of control | [6] 108 % of control | dose: 400.0 mg/kg/injection, schedule: Q04DX003 (ip), vehicle: saline sonified 94 % of control

O=C(O)CC1(CC(=O)O)CCCCC1
inactive: [9] 98 % of control | [2] 94 % of control | [3] 91 % of control | [4] 100 % of control | [5] 93 % of control

C1=C(CN2CCCCC2)COc2ccccc21
inactive: dose: 37.5 mg/kg/injection, schedule: Q04DX003 (ip), vehicle: saline 107 % of control | dose: 75.0 mg/kg/injection, schedule: Q01DX001 (ip), vehicle: saline 98 % of control | dose: 75.0 mg/kg/injection, schedule: Q04DX003 (ip), vehicle: saline 104 % of control | dose: 150.0 mg/kg/injection, schedule: Q01DX001 (ip), vehicle: saline 97 % of control | dose: 150.0 mg/kg/injection, schedule: Q04DX003 (ip), vehicle: saline 104 % of control

Cc1ncc([N+](=O)[O-])n1CCSC(N)=O
inactive: dose: 12.5 mg/kg/injection, schedule: Q01DX009 (ip), vehicle: saline with Tween-80 103 % of control | dose: 25.0 mg/kg/injection, schedule: Q01DX009 (ip), vehicle: saline with Tween-80 96 % of control | [9] 102 % of control | [2] 100 % of control | [4] 100 % of control | [6] 100 % of control

CN1CCc2cc3c(cc2C1)OCO3
inactive: dose: 75.0 mg/kg/injection, schedule: Q01DX001 (ip), vehicle: other 98 % of control | [1] 97 % of control | dose: 150.0 mg/kg/injection, schedule: Q01DX001 (ip), vehicle: other 92 % of control

C/C(=N\N)c1ccc(Cl)cc1
inactive: [3] 103 % of control | [5] 123 % of control | [7] 109 % of control

OC(c1ccccc1)(c1ccccc1)c1ccc(CN2CCOCC2)cc1
inactive: dose: 12.5 mg/kg/injection, schedule: Q01DX009 (ip), vehicle: other 101 % of control | dose: 25.0 mg/kg/injection, schedule: Q01DX009 (ip), vehicle: other 98 % of control | dose: 50.0 mg/kg/injection, schedule: Q01DX009 (ip), vehicle: other 93 % of control | dose: 100.0 mg/kg/injection, schedule: Q01DX009 (ip), vehicle: other 90 % of control | dose: 200.0 mg/kg/injection, schedule: Q01DX009 (ip), vehicle: other 98 % of control

COc1ccc(C(O)C#N)cc1O (stereo unspecified)
inactive: dose: 3.13 mg/kg/injection, schedule: Q01DX009 (ip), vehicle: saline 101 % of control | dose: 6.25 mg/kg/injection, schedule: Q01DX009 (ip), vehicle: saline 103 % of control | dose: 6.25 mg/kg/injection, schedule: Q04DX003 (ip), vehicle: saline 101 % of control | dose: 12.5 mg/kg/injection, schedule: Q01DX009 (ip), vehicle: saline 101 % of control | dose: 12.5 mg/kg/injection, schedule: Q04DX003 (ip), vehicle: saline 106 % of control

CC(=O)OC(OC(C)=O)c1cccc([N+](=O)[O-])c1
inactive: [2] 102 % of control | [4] 93 % of control | [6] 96 % of control

CN(C)c1ccc(N=Cc2cc[n+](C)cc2)cc1
inactive: dose: 25.0 mg/kg/injection, schedule: Q04DX003 (ip), vehicle: saline 98 % of control | dose: 50.0 mg/kg/injection, schedule: Q04DX003 (ip), vehicle: saline 102 % of control | dose: 100.0 mg/kg/injection, schedule: Q04DX003 (ip), vehicle: saline 102 % of control

CCOC(=O)C1(C(=O)OCC)C(C)CC2Nc3cc4c(cc3C(=O)N21)OCO4 (stereo unspecified)
inactive: dose: 100.0 mg/kg/injection, schedule: Q01DX001 (ip), vehicle: Klucel (hydroxypropylcellulose) (HPC) 92 % of control | dose: 200.0 mg/kg/injection, schedule: Q01DX001 (ip), vehicle: Klucel (hydroxypropylcellulose) (HPC) 96 % of control | dose: 400.0 mg/kg/injection, schedule: Q01DX001 (ip), vehicle: Klucel (hydroxypropylcellulose) (HPC) 96 % of control

C/C=C/C(=O)Nc1ccc(Cl)c(Cl)c1
inactive: dose: 25.0 mg/kg/injection, schedule: Q01DX001 (ip), vehicle: saline with Tween-80 102 % of control | dose: 50.0 mg/kg/injection, schedule: Q01DX001 (ip), vehicle: saline with Tween-80 101 % of control | [8] 95 % of control

O=C([O-])[O-].O=[N+]([O-])O.[Co+3].[NH2-].[NH2-].[NH2-].[NH2-]
inactive: [6] 93 % of control | [7] 94 % of control
